Key:
[1] = system: Spontaneously hypertensive rats (SHR); assay: Acute efficacy in spontaneously hypertensive rats (SHR): telemetry blood pressure lowering after a single oral dose; format: in vivo, rat
Summary of the method: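 Male SHR carrying aortic telemetry implants (14-day recovery) received a single oral gavage of compound or vehicle (10% transcutol/20% Cremophor/70% water). Conscious blood pressure was sampled 30 s every 10 min and averaged hourly; change was taken against the prior-day vehicle baseline, reported as maximum peak SBP decrease at a given PO dose (mpk).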

sGC α1/β1 heterodimer = target: T1, sGC α1/β1 heterodimer (Homo sapiens, UniProt Q02108+Q02153); assay: Cell-based sGC functional assay (CASA assay): cGMP generation in CHO-K1/sGC cells, HTRF detection; settings: for Emax: CHO-K1, percent activation relative to standard Compound A in CHO-K1/sGC cells, read-out: % Act.; for EC50: inflection point (IP) of cGMP generation in CHO-K1/sGC cells, 4P fit, activity expressed as percentage of Compound A
T1 construct: expressed in transfected cells; host or cells: CHO-K1 (clone #7, CHO-K1/sGC)
T1 sequence (Q02108 1-690): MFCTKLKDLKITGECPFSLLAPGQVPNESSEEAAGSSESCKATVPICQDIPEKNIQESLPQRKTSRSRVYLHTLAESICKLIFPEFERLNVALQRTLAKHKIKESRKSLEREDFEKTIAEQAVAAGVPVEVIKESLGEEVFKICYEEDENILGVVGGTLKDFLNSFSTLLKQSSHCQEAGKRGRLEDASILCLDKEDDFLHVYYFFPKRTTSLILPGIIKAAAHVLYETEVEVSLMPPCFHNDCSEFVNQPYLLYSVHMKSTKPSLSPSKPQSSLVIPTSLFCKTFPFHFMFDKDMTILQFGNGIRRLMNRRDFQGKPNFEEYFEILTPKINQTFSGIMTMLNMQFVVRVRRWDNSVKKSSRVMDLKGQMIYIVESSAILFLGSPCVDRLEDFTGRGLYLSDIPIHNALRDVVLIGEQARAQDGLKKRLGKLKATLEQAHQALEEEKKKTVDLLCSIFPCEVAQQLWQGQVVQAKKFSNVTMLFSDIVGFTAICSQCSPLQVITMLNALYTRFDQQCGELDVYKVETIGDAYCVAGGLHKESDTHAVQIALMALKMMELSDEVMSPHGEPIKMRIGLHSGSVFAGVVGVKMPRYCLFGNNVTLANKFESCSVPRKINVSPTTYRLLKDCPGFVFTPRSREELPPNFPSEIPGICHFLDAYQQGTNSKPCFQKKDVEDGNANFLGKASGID
T1 sequence (Q02153 1-619): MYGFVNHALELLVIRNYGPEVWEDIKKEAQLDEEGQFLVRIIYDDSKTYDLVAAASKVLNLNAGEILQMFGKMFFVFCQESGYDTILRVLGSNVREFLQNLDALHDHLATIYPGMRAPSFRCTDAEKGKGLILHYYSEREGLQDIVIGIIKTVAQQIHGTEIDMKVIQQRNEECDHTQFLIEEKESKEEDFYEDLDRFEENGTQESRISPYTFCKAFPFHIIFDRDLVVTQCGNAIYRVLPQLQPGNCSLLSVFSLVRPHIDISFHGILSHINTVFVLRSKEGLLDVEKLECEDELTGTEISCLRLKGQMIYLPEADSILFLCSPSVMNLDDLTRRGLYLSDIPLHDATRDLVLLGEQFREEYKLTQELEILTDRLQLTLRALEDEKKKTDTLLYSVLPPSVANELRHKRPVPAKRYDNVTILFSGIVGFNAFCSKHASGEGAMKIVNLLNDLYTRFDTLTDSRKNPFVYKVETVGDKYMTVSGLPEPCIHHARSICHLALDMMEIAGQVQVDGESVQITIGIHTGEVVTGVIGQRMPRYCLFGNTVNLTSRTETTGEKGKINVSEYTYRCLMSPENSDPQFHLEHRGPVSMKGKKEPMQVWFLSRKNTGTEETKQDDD
Summary of the method: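 Stable CHO-K1/sGC cells in EBSS buffer with 5 mM MgCl2, 0.05% BSA and 0.5 mM IBMX were incubated with compound (2.5% DMSO final) ±1 μM DETA-NO for 1 hr at 37° C. cGMP was measured by HTRF. Activation is expressed as % of reference HDA Compound A maximum, with IP and max fold induction from a 4P fit.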

SMILES | Emax (sGC α1/β1 heterodimer) | EC50 (sGC α1/β1 heterodimer) | Maximum peak decrease of systolic blood pressure (SBP) in SHR, Cat. ([1]; P.O. 0.3 mpk) | Maximum peak decrease of systolic blood pressure (SBP) in SHR, Cat. ([1]; P.O. 1.0 mpk)
CCC1(c2ccc(Cl)cc2)C(=O)Nc2nc(-c3cn4ccnc4c(CCCC(F)(F)F)n3)nc(N)c21 (stereo not drawn) [Example 209B, 4-amino-5-(4-chlorophenyl)-5-ethyl-2-(8-(4,4,4-trifluorobutyl)imidazo[1,2-a]pyrazin-6-yl)-5H-pyrrolo[2,3-d]pyrimidin-6(7H)-one] | 111% | 49 nM | B (Category B=SBP in SHRs 20-40 mmHg) | 
CC1(c2ccc(F)cc2)C(=O)Nc2nc(-c3cn4ccnc4c(CCCC(F)(F)F)n3)nc(N)c21 (stereo not drawn) [Example 211A, 4-amino-5-(4-fluorophenyl)-5-methyl-2-(8-(4,4,4-trifluorobutyl)imidazo[1,2-a]pyrazin-6-yl)-5H-pyrrolo[2,3-d]pyrimidin-6(7H)-one] | 122% | 75 nM | A (Category A=SBP in SHRs<20 mmHg) | 
CC1(c2ccc(C(F)(F)F)cn2)C(=O)Nc2nc(-c3cn4ccnc4c(CCCC(F)(F)F)n3)nc(N)c21 (stereo not drawn) [Example 213B, 4-amino-5-methyl-2-(8-(4,4,4-trifluorobutyl)imidazo[1,2-a]pyrazin-6-yl)-5-(5-(trifluoromethyl)pyridin-2-yl)-5H-pyrrolo[2,3-d]pyrimidin-6(7H)-one] | 89% | 100 nM | B (Category B=SBP in SHRs 20-40 mmHg) | 
CC1(c2ccc(OC(F)F)cn2)C(=O)Nc2nc(-c3cn4ccnc4c(CCCC(F)(F)F)n3)nc(N)c21 (stereo not drawn) [Example 214A, 4-amino-5-(5-(difluoromethoxy)pyridin-2-yl)-5-methyl-2-(8-(4,4,4-trifluorobutyl)imidazo[1,2-a]pyrazin-6-yl)-5H-pyrrolo[2,3-d]pyrimidin-6(7H)-one] | 92% | 247 nM |  | B (Category B=SBP in SHRs 20-40 mmHg)
CCC1(c2ccc(F)cc2)C(=O)Nc2nc(-c3cn4ccnc4c(CCCC(F)(F)F)n3)nc(N)c21 (stereo not drawn) [Example 215A, 4-amino-5-ethyl-5-(4-fluorophenyl)-2-(8-(4,4,4-trifluorobutyl)imidazo[1,2-a]pyrazin-6-yl)-5H-pyrrolo[2,3-d]pyrimidin-6(7H)-one] | 107% | 351 nM | B (Category B=SBP in SHRs 20-40 mmHg) | 

Further lines, with some results ahead:

Emax (sGC α1/β1 heterodimer) | EC50 (sGC α1/β1 heterodimer) | SMILES | Maximum peak decrease of systolic blood pressure (SBP) in SHR, Cat. ([1]; P.O. 0.3 mpk) | Maximum peak decrease of systolic blood pressure (SBP) in SHR, Cat. ([1]; P.O. 1.0 mpk)
97% | 40 nM | CC1(c2ccc(F)cn2)C(=O)Nc2nc(-c3cn4ccnc4c(CCCC(F)(F)F)n3)nc(N)c21 (stereo not drawn) [Example 210B, 4-amino-5-(5-fluoropyridin-2-yl)-5-methyl-2-(8-(4,4,4-trifluorobutyl)imidazo[1,2-a]pyrazin-6-yl)-5H-pyrrolo[2,3-d]pyrimidin-6(7H)-one] | A (Category A=SBP in SHRs<20 mmHg) | 
77% | 146 nM | CCOc1ccc(C2(C)C(=O)Nc3nc(-c4cn5ccnc5c(CCCC(F)(F)F)n4)nc(N)c32)nc1 (stereo not drawn) [Example 216A, 4-amino-5-(5-ethoxypyridin-2-yl)-5-methyl-2-(8-(4,4,4-trifluorobutyl)imidazo[1,2-a]pyrazin-6-yl)-5H-pyrrolo[2,3-d]pyrimidin-6(7H)-one] |  | B (Category B=SBP in SHRs 20-40 mmHg)
82% | 288 nM | Nc1nc(-c2cn3ccnc3c(CCCC(F)(F)F)n2)nc2c1C(c1ccc(F)cn1)(C1CC1)C(=O)N2 (stereo not drawn) [Example 217A, 4-amino-5-cyclopropyl-5-(5-fluoropyridin-2-yl)-2-(8-(4,4,4-trifluorobutyl)imidazo[1,2-a]pyrazin-6-yl)-5H-pyrrolo[2,3-d]pyrimidin-6(7H)-one] |  | C (Category C=SBP in SHRs>40 mmHg)
126% | 253 nM | Nc1nc(-c2cn3ccnc3c(CCCC(F)(F)F)n2)nc2c1C(c1ccc(Cl)cn1)(C1CC1)C(=O)N2 (stereo not drawn) [Example 218B, 4-amino-5-(5-chloropyridin-2-yl)-5-cyclopropyl-2-(8-(4,4,4-trifluorobutyl)imidazo[1,2-a]pyrazin-6-yl)-5H-pyrrolo[2,3-d]pyrimidin-6(7H)-one] |  | C (Category C=SBP in SHRs>40 mmHg)

Reference: US9796733B2, “Imidazo-pyrazine derivatives useful as soluble guanylate cyclase activators” (Merck Sharp & Dohme Corp., priority 2014, dated 2017)
